Assay results from patent US7157452B2, “Substituted 4,9-dihydrocyclopenta{imn}phenanthridine-5-ones derivatives thereof and their uses” (MGI GP, Inc., priority 2001, dated 2007).
Values joined by “and” are separate entries in the source; they are usually repeats but may differ in a detail not shown here. Equal values may be shown once. Read-outs that look alike come from different tables or passages of the source.

Tests used:
rabbits = conditions: cited from earlier work
[1] = biological target: T1, purified recombinant human PARP (Homo sapiens, UniProt P09874); assay: PARP enzyme assay with [3H]NAD, scintillation counting; type: biochemical
T1 construct: purchased Trevigan (Gaithersburg, Md.)
T1 sequence (P09874 whole entry): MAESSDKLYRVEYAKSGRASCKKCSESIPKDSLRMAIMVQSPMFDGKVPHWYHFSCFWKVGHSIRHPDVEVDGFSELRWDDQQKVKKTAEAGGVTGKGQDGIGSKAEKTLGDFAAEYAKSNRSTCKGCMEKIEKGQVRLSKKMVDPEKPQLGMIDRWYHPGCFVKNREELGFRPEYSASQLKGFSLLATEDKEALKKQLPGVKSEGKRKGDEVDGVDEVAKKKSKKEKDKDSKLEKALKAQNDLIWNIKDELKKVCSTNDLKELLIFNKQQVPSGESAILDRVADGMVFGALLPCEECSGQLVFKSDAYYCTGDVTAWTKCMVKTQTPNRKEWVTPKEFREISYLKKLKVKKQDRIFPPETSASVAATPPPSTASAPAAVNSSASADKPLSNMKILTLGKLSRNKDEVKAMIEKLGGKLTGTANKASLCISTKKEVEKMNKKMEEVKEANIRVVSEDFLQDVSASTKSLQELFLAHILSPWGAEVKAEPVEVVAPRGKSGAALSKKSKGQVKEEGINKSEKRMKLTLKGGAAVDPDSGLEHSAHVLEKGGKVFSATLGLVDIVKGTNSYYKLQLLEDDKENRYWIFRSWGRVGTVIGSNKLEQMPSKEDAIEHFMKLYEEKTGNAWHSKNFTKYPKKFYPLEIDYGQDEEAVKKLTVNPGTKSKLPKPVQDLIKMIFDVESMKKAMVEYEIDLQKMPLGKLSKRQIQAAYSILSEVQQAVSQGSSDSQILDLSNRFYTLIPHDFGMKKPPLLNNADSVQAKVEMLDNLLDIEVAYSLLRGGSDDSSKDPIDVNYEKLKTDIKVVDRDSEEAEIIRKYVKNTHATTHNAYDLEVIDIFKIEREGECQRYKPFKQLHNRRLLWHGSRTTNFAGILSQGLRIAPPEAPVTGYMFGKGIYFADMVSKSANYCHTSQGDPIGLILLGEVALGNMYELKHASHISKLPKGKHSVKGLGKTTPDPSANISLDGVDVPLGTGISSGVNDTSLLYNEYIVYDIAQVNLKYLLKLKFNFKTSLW
Protocol: The reaction is initiated by incubating the mixture at 25° C. After 15 minutes of incubation, the reaction is terminated by adding 500 microliters of ice cold 20% (w/v) trichloroacetic acid. The precipitate formed is transferred onto a glass fiber filter (Packard Unifilter-GF/B) and washed three times with ethanol. After the filter is dried, the radioactivity is determined by scintillation counting.
Using the PARP assay described above, approximate IC50 (μM) values were obtained as shown in the following Table III, which also include specific embodiments of the compounds of the present invention: […]

Swiss albino mice = assay: Gout model: MSU crystal-induced neutrophil recruitment (peritonitis); type: in vivo
Protocol: Male outbread Swiss albino mice (20–22 g body weight) were purchased from Banton and Kingsman (T.O. strain; Hull, Humberside) and maintained on a standard chow pellet diet with tap water ad libitum and a 12:00 h light dark cycle. All animals were housed for 1 week prior to experimentation to allow body weight to reach 23–30 g.
1.11b-dihydrobenzopyrano[4,3,2-de]isoquinolin-1-one was dissolved in 100% DMSO at room temperature at a concentration of 45 mg in 2 ml. The compound was then injected into the peritoneal cavity, so as each mouse received a single dose corresponding to 45 mg/2 ml/kg (e.g. 60 μl for a mouse of 30 g). Control mice received DMSO at 2 ml/kg i.p. A third group of mice which were left untreated were added to control for potential effects of the vehicle. The study involved therefore, the following three groups: group A, untreated mice, n=6, group B, DMSO-treated mice, n=8, and group C, mice treated with 1.1 lb-dihydrobenzopyrano[4,3,2-de]isoquinolin-1-one, n=8
MSU crystal-induced neutrophil recruitment was tested as follows. In all cases, mice were treated 1 h after the treatment noted above, with MSU crystals. A homogenous suspension of MSU crystals was obtained by a 30 min rotation. Peritonitis was induced by injection of 3 mg MSU crystals in 0.5 ml PBS (0.1 M, pH 7.4), and the recruitment of neutrophils into the cavity evaluated at the 6 h time point (Gerting et al., 1997, J. Pharmacol. Exp. Ther. 233: 123–130). Animals were then euthanised by CO2 exposure and the peritoneal cavity washed with 3 ml of PBS supplemented with 3 mM EDTA and 25 U/ml heparin.
An aliquot (100 μl) of the lavage fluid was then diluted 1:10 in Turk's solution (0.01% crystal violet in 3% acetic acid). The samples were then vortexed and 10 μl of the stained cell solution were placed in a Neubauer haematocymometer and neutrophils numbers counted using a light microscope (Olympus B061). […]
Data are shown for single mice, and also shown as mean±S.E. of (n) mice per group. Statistical differences were determined by ANOVA, plus Bonferroni test. […]

[2] = Table III, read-out: approximate IC50

Structure (SMILES)	IC50 [1, 2]	IC50 ([1]; examples table, read-out: IC50)	also measured
NC(=O)c1cccc(N)c1 [3-aminobenzamide]	–	–	reduction in infarct size in the heart (rabbits; single injection 10 mg/kg, one minute before occlusion or one minute before reperfusion): 32–42%
O=c1[nH]c2ccc(S(=O)(=O)N3CCN(Cc4ccncc4)CC3)c3c2c2c(cccc12)C3 [Example 28]	406 nM	406 nM	–
CN1CCCC(CN2CCN(CC(=O)Nc3ccc4[nH]c(=O)c5cccc6c5c4c3C6)CC2)C1 (stereo not shown) [Example 51]	178 nM	178 nM	–
O=c1[nH]c2ccc(S(=O)(=O)N3CCN(CCN4CCCC4)CC3)c3c2c2c(cccc12)C3 [Example 30]	264 nM	264 nM	–
O=C(CNCCN1CCCCC1)Nc1ccc2[nH]c(=O)c3cccc4c3c2c1C4 [Example 38]	175 nM	175 nM	–
O=C1N=Cc2cccc3c2C1c1ccccc1O3 (stereo not shown) [1,11b-dihydrobenzopyrano[4,3,2-de]isoquinolin-1-one]	–	–	inhibition of cell influx vs. the vehicle group (Swiss albino mice; 45 mg/kg i.p., MSU crystals, 6 h): 55%; Neutrophil Numbers (single mice) (Swiss albino mice; group C, 45 mg/kg i.p. 1 h prior to 3 mg MSU crystals, peritoneal lavage at 6 h, one value per mouse, 45 mg/kg): 2.4 10^6 per mouse (2×) and 3.0 10^6 per mouse (2×) and 2.7 10^6 per mouse and 2.1 10^6 per mouse (2×) and 5.1 10^6 per mouse; Neutrophils (10^6 per mouse), mean ± S.E. (Swiss albino mice; group C, 45 mg/kg i.p., MSU crystals (3 mg), 6 h, n=8, P<0.05 vs. vehicle group B (6.30 ± 0.33)): 2.85 ± 0.34 (8)* 10^6 per mouse
O=c1[nH]c2ccc(S(=O)(=O)N3CCN(CCN4CCOCC4)CC3)c3c2c2c(cccc12)C3 [Example 27]	634 nM	634 nM	–
O=C(CNCCN1CCOCC1)Nc1ccc2[nH]c(=O)c3cccc4c3c2c1C4 [Example 47]	457 nM	457 nM	–
O=C(CNCCCN1CCOCC1)Nc1ccc2[nH]c(=O)c3cccc4c3c2c1C4 [Example 37]	178 nM	178 nM	–
O=c1[nH]c2ccc(S(=O)(=O)N3CCN(CCN4CCCCC4)CC3)c3c2c2c(cccc12)C3 [Example 26]	314 nM	314 nM	–
O=c1[nH]c2ccc(S(=O)(=O)N3CCN(CC4CCCO4)CC3)c3c2c2c(cccc12)C3 (stereo not shown) [Example 3]	247 nM	247 nM	–
O=C(CN1CCN(CCN2CCOCC2)CC1)Nc1ccc2[nH]c(=O)c3cccc4c3c2c1C4 [Example 55]	558 nM	558 nM	–
O=C(CNCCCc1ccccc1)Nc1ccc2[nH]c(=O)c3cccc4c3c2c1C4 [Example 36]	188 nM	188 nM	–
O=C(CN1CCN(c2ccc(F)cc2F)CC1)Nc1ccc2[nH]c(=O)c3cccc4c3c2c1C4 [Example 41]	336 nM	336 nM	–
O=c1[nH]c2ccc(S(=O)(=O)N3CCN(c4ccc(C(F)(F)F)cc4)CC3)c3c2c2c(cccc12)C3 [Example 7]	269 nM	269 nM	–
Oc1cccc2c(O)nccc12 [1,5-dihydroxyisoquinoline]	–	–	reduction in infarct size (rabbits; single injection 1 mg/kg): 38–42%

Now from value to compound, other results behind:

IC50 [1, 2]	IC50 ([1]; examples table, read-out: IC50)	Structure (SMILES)	also measured
129 nM	129 nM	CN1CCN(NS(=O)(=O)c2ccc3[nH]c(=O)c4cccc5c4c3c2C5)CC1 [Example 10]	–
64 nM	64 nM	CN(C)CCCN1CCN(S(=O)(=O)c2ccc3[nH]c(=O)c4cccc5c4c3c2C5)CC1 [Example 21]	–
92 nM	92 nM	O=c1[nH]c2ccc(S(=O)(=O)NN3CCOCC3)c3c2c2c(cccc12)C3 [Example 16]	–
64 nM	64 nM	CN1CCN(CCCNS(=O)(=O)c2ccc3[nH]c(=O)c4cccc5c4c3c2C5)CC1 [Example 12]	–
72 nM	72 nM	CN(C)CCCN1CCN(CC(=O)Nc2ccc3[nH]c(=O)c4cccc5c4c3c2C5)CC1 [Example 49]	–
52 nM	52 nM	CN1CCN(CCCNS(=O)(=O)c2ccc3[nH]c(=O)c4cccc5c4c3c2C5)CC1 [Example 19]	–
48 nM	48 nM	CCN(CC)CCNS(=O)(=O)c1ccc2[nH]c(=O)c3cccc4c3c2c1C4 [Example 13]	–
49 nM	49 nM	O=C(CNCCN1CCCC1)Nc1ccc2[nH]c(=O)c3cccc4c3c2c1C4 [Example 11]	–
63 nM	63 nM	O=c1[nH]c2ccc(S(=O)(=O)NCCCN3CCOCC3)c3c2c2c(cccc12)C3 [Example 6]	–
119 nM	119 nM	CN1CCC(N2CCN(CC(=O)Nc3ccc4[nH]c(=O)c5cccc6c5c4c3C6)CC2)CC1 [Example 53]	–
58 nM	58 nM	O=C(CN1CCOCC1)Nc1ccc2[nH]c(=O)c3cccc4c3c2c1C4 [Example 34]	–
115 nM	115 nM	O=c1[nH]c2ccc(S(=O)(=O)N3CCN(CCN4CCCC4)CC3)c3c2c2c(cccc12)C3 [Example 22]	–
115 nM	115 nM	CN(C)CCN1CCN(CC(=O)Nc2ccc3[nH]c(=O)c4cccc5c4c3c2C5)CC1 [Example 50]	–
109 nM	109 nM	CN(C)CCCN1CCN(S(=O)(=O)c2ccc3[nH]c(=O)c4cccc5c4c3c2C5)CC1 [Example 29]	–
137 nM	137 nM	CCOC(=O)C1CCCN(S(=O)(=O)c2ccc3[nH]c(=O)c4cccc5c4c3c2C5)C1 (stereo not shown) [Example 2, 1-(5-Oxo-5,9-dihydro-4H-cyclopenta[lmn]phenanthridine-1-sulfonyl)-piperidine-3-carboxylic acid ethyl ester]	–
158 nM	158 nM	O=C(CN1CCN(c2ccccn2)CC1)Nc1ccc2[nH]c(=O)c3cccc4c3c2c1C4 [Example 42]	–
55 nM	55 nM	CN(C)CCN(C)CC(=O)Nc1ccc2[nH]c(=O)c3cccc4c3c2c1C4 [Example 57]	–
166 nM	166 nM	CN1CCC(N2CCN(S(=O)(=O)c3ccc4[nH]c(=O)c5cccc6c5c4c3C6)CC2)CC1 [Example 23]	–
